Experiment: clinical
Settings: human, in vivo

| SMILES | CL renal [mL/min/kg] |
| --- | --- |
| CC[C@H](C)C(=O)O[C@H]1C[C@H](O)C=C2C=C[C@H](C)[C@H](CC[C@@H](O)C[C@@H](O)CC(=O)O)[C@H]21 [PRAVASTATIN] | 6.3 |
| O=C(O)CCCc1ccc(N(CCCl)CCCl)cc1 [CHLORAMBUCIL] | 0.03 |
| Cc1cccc(N2CC(CO)OC2=O)c1 (stereo not given) [TOLOXATONE] | 0.11 |
| CC1(C)S[C@@H]2[C@H](NC(=O)Cc3ccccc3)C(=O)N2[C@H]1C(=O)O [PENICILLIN G] | 5 |
| N[C@@H](C(=O)N[C@@H]1C(=O)N2C(C(=O)O)=C(CSc3c[nH]nn3)CS[C@H]12)c1ccc(O)cc1 [CEFATRIZINE] | 2.64 |
| CN1C(=O)NC(=O)C(C)(C2=CCCCC2)C1=O (stereo not given) [HEXOBARBITAL] | 0.02 |
| O=C1CN=C(c2ccccn2)c2cc(Br)ccc2N1 [BROMAZEPAM] | 0.26 |
| CCOc1ccc2ccccc2c1C(=O)N[C@@H]1C(=O)N2[C@@H]1SC(C)(C)[C@@H]2C(=O)O [NAFCILLIN] | 1.03 |
| Nc1nc(N)c2nc(-c3ccccc3)c(N)nc2n1 | 2.77 |
| C[C@@H](O)[C@H]1C(=O)N2C(C(=O)O)=C(S[C@H]3C[C@@H](C(=O)N4CC[C@H](NC(=O)CNC(=N)N)C4)N(C)C3)[C@H](C)[C@H]12 [TOMOPENEM] | 1.14 |
| Nc1ccn(C[C@@H](CO)OCP(=O)(O)O)c(=O)n1.O.O [CIDOFOVIR] | 2.25 |
| CC(CCc1ccccc1)NCC(O)c1ccc(O)c(C(N)=O)c1 (stereo not given) [LABETALOL] | 0.92 |
| C[C@@H](CN1CC(=O)NC(=O)C1)N1CC(=O)NC(=O)C1 [DEXRAZOXANE] | 1.4 |
| CC(C)(C)NC[C@H](O)COc1nsnc1N1CCOCC1 [TIMOLOL] | 1.4 |
| COCC(=O)Nc1c(I)c(C(=O)NCC(O)CO)c(I)c(C(=O)N(C)CC(O)CO)c1I (stereo not given) [IOPROMIDE] | 1.37 |
| C[C@H]1O[C@@H](O[C@H]2[C@@H](O)C[C@H](O[C@H]3[C@@H](O)C[C@H](O[C@H]4CC[C@@]5(C)[C@H](CC[C@@H]6[C@@H]5C[C@@H](O)[C@]5(C)[C@@H](C7=CC(=O)OC7)CC[C@]65O)C4)O[C@@H]3C)O[C@@H]2C)C[C@H](O)[C@@H]1O [DIGOXIN] | 1.7 |
| CCCc1nc2c(C)cc(-c3nc4ccccc4n3C)cc2n1Cc1ccc(-c2ccccc2C(=O)O)cc1 | 0.08 |
| CN(Cc1cnc2nc(N)nc(N)c2n1)c1ccc(C(=O)N[C@@H](CCC(=O)O)C(=O)O)cc1 [METHOTREXATE] | 1.7 |
| CCC(C)(C)NCC(O)COc1ccccc1C(=O)CCc1ccccc1 (stereo not given) [DIPRAFENONE] | 0.04 |
| CC(=O)Nc1nnc(S(N)(=O)=O)s1 [ACETAZOLAMIDE] | 0.64 |
| CC(C)c1nc(N(C)S(C)(=O)=O)nc(-c2ccc(F)cc2)c1/C=C/[C@@H](O)C[C@@H](O)CC(=O)O [ROSUVASTATIN] | 3.3 |
| COc1ccc2cc1Oc1cc3c(cc1OC)CC[N+](C)(C)[C@H]3Cc1ccc(cc1)Oc1c(OC)c(OC)cc3c1[C@@H](C2)[N+](C)(C)CC3.[I-].[I-] [METOCURINE IODIDE] | 0.52 |
| CC[C@@]1(O)C(=O)OCc2c1cc1n(c2=O)Cc2cc3c(CN(C)C)c(O)ccc3nc2-1 [TOPOTECAN] | 5.2 |
| CC(CN1c2ccccc2Sc2ccccc21)N(C)C (stereo not given) [PROMETHAZINE] | 0.14 |
| CN(C)CCC(c1ccc(Cl)cc1)c1ccccn1 (stereo not given) [CHLORPHENIRAMINE] | 0.43 |
| CNS(=O)(=O)CCc1ccc2[nH]cc(C3CCN(C)CC3)c2c1 | 3.1 |
| Cc1cccc(C)c1NC(=O)NCCCNC(C)C | 2.3 |

| SMILES | CL renal [mL/min/kg] |
| --- | --- |
| N[C@@H]1CN(c2c(F)cc3c(=O)c(C(=O)O)cn([C@@H]4C[C@@H]4F)c3c2Cl)CC12CC2 [SITAFLOXACIN ANHYDROUS] | 2.8 |
| N[C@@H](Cc1ccc(O)c(O)c1)C(=O)O [LEVODOPA] | 0.23 |
| CC1(C)S[C@@H]2[C@H](NC(=O)[C@H](NC(=O)N3CCNC3=O)c3ccccc3)C(=O)N2[C@H]1C(=O)O [AZLOCILLIN] | 1.67 |
| Nc1ncn([C@H]2C[C@H](O)[C@@H](CO)O2)c(=O)n1 [DECITABINE] | 1.3 |
| CC(=O)NC[C@H]1CN(c2ccc(N3CCOCC3)c(F)c2)C(=O)O1 [LINEZOLID] | 0.6 |
| O=C(N[C@H](CO)[C@H](O)c1ccc([N+](=O)[O-])cc1)C(Cl)Cl [CHLORAMPHENICOL] | 0.24 |
| CCCCCN(CCCOC)C(=O)[C@@H](CCC(=O)O)NC(=O)c1ccc(Cl)c(Cl)c1 [DEXLOXIGLUMIDE] | 0.41 |
| COc1ccc2c(c1)c(CC(=O)O)c(C)n2C(=O)c1ccc(Cl)cc1 [INDOMETHACIN] | 0.2 |
| CCN(CC)CCCC(C)Nc1ccnc2cc(Cl)ccc12 (stereo not given) [CHLOROQUINE] | 2.3 |
| O=c1[nH]c2ccccc2n1CCCN1CCC(n2c(=O)[nH]c3cc(Cl)ccc32)CC1 [DOMPERIDONE] | 0.04 |
| CC(C)=CCN1CC[C@]2(C)c3cc(O)ccc3C[C@H]1[C@H]2C [(+)-PENTAZOCINE] | 2.99 |
| CC(C)(C)NCC(O)COc1ccc(NC(=O)NC2CCCCC2)cc1 (stereo not given) [TALINOLOL] | 2.6 |
| COC(=O)[C@H]1[C@@H](OC(=O)c2ccccc2)C[C@@H]2CC[C@H]1N2C [COCAINE] | 0.4 |
| CC1(C)S[C@@H]2[C@H](NC(=O)COc3ccccc3)C(=O)N2[C@H]1C(=O)O [PENICILLIN V] | 1.74 |
| C[C@]12C=CC(=O)C=C1CC[C@@H]1[C@@H]2C(=O)C[C@@]2(C)[C@H]1CC[C@]2(O)C(=O)CO [PREDNISONE] | 0.05 |
| O=C(c1ccc(F)cc1)C1CCN(CCn2c(=O)[nH]c3ccccc3c2=O)CC1 [KETANSERIN] | 0.05 |
| CO/N=C(\C(=O)N[C@@H]1C(=O)N2C(C(=O)O)=C(COC(N)=O)CS[C@H]12)c1ccco1 [CEFUROXIME] | 2.11 |
| CC1CCCC(C)N1CCCC(O)(c1ccccc1)c1ccccn1 (stereo not given) [PIRMENOL] | 0.72 |
| NC(N)=Nc1nc(CSCCC(N)=NS(N)(=O)=O)cs1 [FAMOTIDINE] | 4.42 |
| CC(CC(c1ccccc1)c1ccccc1)NC(C)(C)C (stereo not given) [TERODILINE] | 0.14 |
| Nc1c2c(nc3ccccc13)CCCC2 [TACRINE] | 1.68 |
| COc1nc(C)nc(Cl)c1N=C1NCCN1 [MOXONIDINE] | 7.5 |
| C[C@H](N[C@@H](CCc1ccccc1)C(=O)O)C(=O)N1CCC[C@H]1C(=O)O [ENALAPRILAT ANHYDROUS] | 1.6 |
| C[C@H]1O[C@@H](n2cc(F)c(=O)[nH]c2=O)[C@H](O)[C@@H]1O [DOXIFLURIDINE] | 4.3 |
| O=C(O)Cc1ccccc1Nc1c(Cl)cccc1Cl [DICLOFENAC] | 0.04 |
| CCOC(=O)C1(c2ccccc2)CCC=CC1N(C)C (stereo not given) [TILIDINE] | 0.26 |
| CCCN(CCC)S(=O)(=O)c1ccc(C(=O)O)cc1 [PROBENECID] | 0.03 |

| SMILES | CL renal [mL/min/kg] |
| --- | --- |
| CCc1nn(CCCN2CCN(c3cccc(Cl)c3)CC2)c(=O)n1CCOc1ccccc1 [NEFAZODONE] | 0.38 |
| COc1cc([C@@H]2c3cc4c(cc3[C@@H](O[C@@H]3O[C@@H]5CO[C@@H](c6cccs6)O[C@H]5[C@H](O)[C@H]3O)[C@H]3COC(=O)[C@H]23)OCO4)cc(OC)c1O [TENIPOSIDE] | 0.02 |
| CO/N=C(\C(=O)N[C@@H]1C(=O)N2C(C(=O)O)=C(COC(C)=O)CS[C@H]12)c1csc(N)n1 [CEFOTAXIME] | 1.37 |
| CN(C)CCC=C1c2ccccc2COc2ccccc21 [DOXEPIN] | 0.12 |
| CN(C)CCCC1(c2ccc(F)cc2)OCc2cc(C#N)ccc21 (stereo not given) [CITALOPRAM] | 0.45 |
| Nc1nc(Cl)nc2c1ncn2[C@H]1C[C@H](O)[C@@H](CO)O1 [CLADRIBINE] | 3.92 |
| CCOc1cc(CC(=O)N[C@@H](CC(C)C)c2ccccc2N2CCCCC2)ccc1C(=O)O [REPAGLINIDE] | 0.12 |
| Cc1c(OCC(F)(F)F)ccnc1C[S+]([O-])c1nc2ccccc2[nH]1 (stereo not given) [LANSOPRAZOLE] | 0.04 |
| C[C@@H]1C[C@H]2[C@@H]3CCC4=CC(=O)C=C[C@]4(C)[C@@]3(F)[C@@H](O)C[C@]2(C)[C@@]1(O)C(=O)CO [DEXAMETHASONE] | 0.09 |
| CC1=C(C(=O)O)N2C(=O)[C@@H](NC(=O)[C@H](N)C3=CCC=CC3)[C@H]2SC1 [CEPHRADINE] | 3.14 |
| COc1c(N2CCNC(C)C2)c(F)cc2c(=O)c(C(=O)O)cn(C3CC3)c12 (stereo not given) [GATIFLOXACIN] | 2.3 |
| CO[C@@]1(NC(=O)C(C(=O)O)c2ccc(O)cc2)C(=O)N2C(C(=O)O)=C(CSc3nnnn3C)CO[C@@H]21 (stereo not given in full) [MOXALACTAM] | 0.63 |
| CCN[C@@H]1C[C@H](N)[C@@H](O[C@H]2OC(CN)=CC[C@H]2N)[C@H](O)[C@H]1O[C@H]1OC[C@](C)(O)[C@H](NC)[C@H]1O [NETILMICIN] | 0.28 |
| Cc1ncc([N+](=O)[O-])n1CCO [METRONIDAZOLE] | 0.19 |
| CC(C)[C@H]1CC[C@H](C(=O)N[C@H](Cc2ccccc2)C(=O)O)CC1 [NATEGLINIDE] | 0.1 |
| CC1(C)S[C@@H]2[C@H](NC(=O)[C@H](N)c3ccc(O)cc3)C(=O)N2[C@H]1C(=O)O [AMOXICILLIN] | 1.89 |
| COc1cc(NCc2ccc3nc(N)nc(N)c3c2C)cc(OC)c1OC [TRIMETREXATE] | 0.14 |
| CCCCCCCCCC(=O)N[C@@H](Cc1c[nH]c2ccccc12)C(=O)N[C@H](CC(N)=O)C(=O)N[C@@H](CC(=O)O)C(=O)N[C@@H]1C(=O)NCC(=O)N[C@@H](CCCN)C(=O)N[C@@H](CC(=O)O)C(=O)N[C@H](C)C(=O)N[C@@H](CC(=O)O)C(=O)NCC(=O)N[C@H](CO)C(=O)N[C@@H]([C@H](C)CC(=O)O)C(=O)N[C@@H](CC(=O)c2ccccc2N)C(=O)O[C@@H]1C | 0.09 |
| C[C@](N)(Cc1ccc(O)c(O)c1)C(=O)O [METHYLDOPA] | 2.1 |
| CC(=O)N[C@H]1[C@H]([C@H](O)[C@H](O)CO)OC(C(=O)O)=C[C@@H]1N=C(N)N [ZANAMIVIR] | 1.39 |
| CC(C)(C)NC(=O)[C@@H]1CN(Cc2cccnc2)CCN1C[C@@H](O)C[C@@H](Cc1ccccc1)C(=O)N[C@H]1c2ccccc2C[C@H]1O.O | 1.53 |
| CC1(C)C[C@@H]1C(=O)N/C(=C\CCCCSC[C@H](N)C(=O)O)C(=O)O [CILASTATIN] | 0.41 |
| Sc1ncnc2nc[nH]c12 [MERCAPTOPURINE ANHYDROUS] | 0.68 |
| Cc1cccc(Nc2ccncc2S(=O)(=O)NC(=O)NC(C)C)c1 [TORSEMIDE] | 0.13 |
| Clc1ccc2nsnc2c1NC1=NCCN1 [TIZANIDINE] | 0.33 |
| C=CCc1ccccc1OCC(O)CNC(C)C (stereo not given) [ALPRENOLOL] | 0.6 |

From ChEMBL document CHEMBL1151930, “Physicochemical determinants of human renal clearance” (J Med Chem, 2009)
